Source: patent publication EP4800013A1, “PARG INHIBITOR” (Shanghai Qilu Pharmaceutical Research and Development …, priority 2023, dated 2025)

What was measured:
[1] = Pharmacokinetic evaluation in BALB/c nude mice (PO); type: in vivo; settings: female, mouse, plasma, 30 mg/kg
Experimental: Using mice as test animals, the compounds of the present disclosure were administered via intravenous bolus and oral injection. Plasma samples were collected at specific time points. Compound concentrations in plasma were determined by LC-MS/MS, and PK parameters were calculated to characterize the pharmacokinetic behavior of the compounds of the present disclosure in plasma.
BALB/c nude mice, female, supplied by Jiangsu GemPharmatech Co., Ltd.
Dosing regimen for BALB/c nude mice: The PO (oral) experimental group consisted of 3 mice, which were administered at a dose of 30 mg/kg and a volume of 10 mL/kg. The dosing vehicle was 5% (v/v) DMSO/10% (v/v) Solutol/85% (v/v) saline.
Following administration, 0.025 mL of blood was collected via venipuncture at the following time points: 0.0833 (IV), 0.25, 0.5, 1, 2, 4, 8, and 24 hours. Blood samples were collected into EDTA-K2 tubes and centrifuged at 4°C and 2000 g for 10 minutes to separate plasma, which was stored at -80°C.
Mouse plasma processing: • 1) 15 µL of plasma was mixed with 200 µL of acetonitrile for protein precipitation. The mixture was vortexed and centrifuged for 15 minutes. • 2) The supernatant after processing was diluted with water and analyzed by LC/MS/MS to determine the concentration of the test compound.
Pharmacokinetic parameters were calculated using WinNonlin 6.1. Specifically, Cmax represents maximum plasma concentration, CL represents clearance, Vss represents volume of distribution at steady state, T1/2 represents terminal elimination half-life, MRTInf represents mean residence time, AUC represents area under the plasma concentration-time curve, and F represents bioavailability. Table 18: Pharmacokinetic parameters of the compounds of the present disclosure in CD-1 mice

PARG = molecular target: T1, PARG (Homo sapiens, UniProt Q86W56); test: Enzymatic inhibitory activity against PARG, HTRF assay; type: biochemical; settings: HTRF; PARylated PARP1 protein as substrate; 60 minutes at room temperature; read-out: IC50 against PARG enzyme
T1 construct: made in house
Method in brief: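 Purified PARG pre-incubated with compounds (top 10 µM, 3- to 5-fold dilutions, duplicates) 15 min at room temperature, then PARylated PARP1 substrate added for 60 min in Tris pH 7.4 buffer with DTT, EDTA/EGTA, KCl. HTRF (His-Tb/SA-XL665) read-out; IC50 by four-parameter logistic fit, normalised to DMSO and control-inhibitor wells.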

T1 sequence (Q86W56 whole entry): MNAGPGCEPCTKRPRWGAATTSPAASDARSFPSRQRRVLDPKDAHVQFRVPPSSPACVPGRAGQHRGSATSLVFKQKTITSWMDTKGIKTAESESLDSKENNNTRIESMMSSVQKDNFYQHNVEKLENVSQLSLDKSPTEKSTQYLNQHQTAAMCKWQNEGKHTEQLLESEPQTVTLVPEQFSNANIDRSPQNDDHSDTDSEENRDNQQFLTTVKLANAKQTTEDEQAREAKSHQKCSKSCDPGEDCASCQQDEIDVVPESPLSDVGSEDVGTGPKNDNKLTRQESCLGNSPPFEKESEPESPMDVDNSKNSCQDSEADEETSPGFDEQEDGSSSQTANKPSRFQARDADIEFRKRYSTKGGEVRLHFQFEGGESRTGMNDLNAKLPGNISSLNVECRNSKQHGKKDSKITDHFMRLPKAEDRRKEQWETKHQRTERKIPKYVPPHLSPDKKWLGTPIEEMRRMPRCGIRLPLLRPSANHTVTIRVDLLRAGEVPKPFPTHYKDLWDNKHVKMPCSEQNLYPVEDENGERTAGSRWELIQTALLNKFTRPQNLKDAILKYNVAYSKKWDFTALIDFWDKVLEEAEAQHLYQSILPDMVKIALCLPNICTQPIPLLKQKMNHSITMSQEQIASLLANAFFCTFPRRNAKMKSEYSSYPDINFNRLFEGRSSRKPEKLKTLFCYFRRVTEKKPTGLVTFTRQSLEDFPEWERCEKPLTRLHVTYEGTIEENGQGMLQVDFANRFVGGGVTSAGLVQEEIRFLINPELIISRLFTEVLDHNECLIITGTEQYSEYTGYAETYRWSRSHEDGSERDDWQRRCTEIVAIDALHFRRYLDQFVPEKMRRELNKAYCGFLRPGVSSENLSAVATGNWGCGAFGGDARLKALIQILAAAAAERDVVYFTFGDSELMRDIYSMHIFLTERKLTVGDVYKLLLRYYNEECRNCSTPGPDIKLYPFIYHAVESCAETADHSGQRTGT

C[C@H]1CN(c2cc(S(=O)(=O)NC3(C)CC3)cc3c2n2nc(C(F)(F)F)nc2n3-c2nnc(C(F)F)s2)C[C@H](C)N1 [Compound 065W]
AUC [1]: 16.4 µM·h
Cmax [1]: 1340 nM
MRT inf [1]: 7.74 h
half-life [1]: 5.28 h
IC50 (PARG): 0.8 nM

C[C@H]1CN(c2cc(S(=O)(=O)NC3(C)CC3)cc3c2n2nc(C(F)F)nc2n3-c2nnc(C(F)F)s2)C[C@H](C)N1 [Compound 065S]
AUC [1]: 9.21 µM·h
Cmax [1]: 1340 nM
MRT inf [1]: 4.8 h
half-life [1]: 2.69 h
IC50 (PARG): 1.4 nM

CCc1nc2n(-c3nnc(C(F)F)s3)c3cc(S(=O)(=O)NC4(C)CC4)cc(N4C[C@H](C)N[C@@H](C)C4)c3n2n1 [Compound 065R]
AUC [1]: 9.52 µM·h
Cmax [1]: 1620 nM
MRT inf [1]: 4.39 h
half-life [1]: 2.62 h
IC50 (PARG): 0.4 nM
